Assay results reported in patent US10799605B2 (3B PHARMACEUTICALS GMBH, priority 2014, dated 2020).
Where two headings read alike, the source gives them in different places.

Columns and labels:
NTR1 [1] = biological target: T1, NTR1 (Homo sapiens (Human), UniProt P30989); assay: Radioligand binding assay NTR1 (example part I)
Experimental: In order to determine the binding affinity of compounds comprising a radiolabel for NTR1, a radioligand binding assay was carried out. A radioligand is a radioactive biochemical substance that is used for diagnosis or for research-oriented study of cellular receptor systems of the body. In […] systems it is often used to quantify the binding of a test molecule to the binding site of radioligand. The higher the affinity of the molecule, the more radioligand is displaced from the binding site. The amount of bound radioligand can be measured by scintillation counting and thereby quantified. This assay is commonly used to calculate binding constants of molecules to receptors.
The NTR1 radioligand binding assay was performed by Cerep (Celle l'Evescault, France; Catalog reference 0109) according to Vita et al., FEBS Lett., 1993, 317, 139-142. NTR1 was prepared from CHO cells recombinantly expressing the human receptor and incubated with 0.05 nM ^125I-(Tyr^3-neurotensin) and serial dilutions of the test compounds. […] The result for each test compound is expressed as IC50 concentration and provides a measure for the affinity of the test compound for NTR1.

NTR1 [2] = biological target: T1, NTR1; assay: Functional Ca2+ mobilisation assay (example part I); type: cell-based
Excerpt: (§1) Ca^2+ ions are usually kept at nanomolar levels in the cytosol of cells, and act in a number of signal transduction pathways as second messengers. […] Changes in calcium ion concentration in standard assay protocols can be readily detected with fluorescent dyes that emit light when changes in intracellular Ca^2+ ion concentration occur. Given the transient nature of these responses, they are often read with instrumentation that has ‘inject and read’ capability.
(§2) HT29 or NTR1-expressing HEK293 cells were trypsinized and seeded into black flat clear-bottom 96-well plates (Corning, Amsterdam, The Netherlands) at […] cells per well. After 24 h incubation at 37° C. and 5% CO2, cells were washed twice with wash buffer (130 mM NaCl, 5 mM KCl, 10 mM Hepes, 2 mM CaCl2, 10 mM Glucose, pH 7.4) and loaded with 100 μl of Ca5 dye (Molecular Devices, Biberach, Germany) for 1 h at 37° C. and 5% CO2. For agonist assays, serial dilutions of agonistic substances were added to the cells loaded with dye and the change of the fluorescent signal was recorded continually for approx. 90 s using a FlexStation II (Molecular Devices, Biberach, Germany). Addition of wash buffer served as a control. Thus, EC50 concentrations for each conjugate were computed and provided a measure for the potency of the substance. For antagonist assays, cells loaded with 100 μl of Ca5-dye were pre-incubated with serial dilutions of antagonistic substances for 30 min, before the EC80-concentration of agonist was added to the cells and the change of the fluorescent signal was recorded continually for approx. 90 s. Thus, IC50 concentrations were computed for each conjugate and provided a measure for the inhibitory activity of the conjugates at the NTR1.

NTR1 [3] = biological target: T1, NTR1; assay: Functional Ca2+ mobilisation assay (example part II); type: cell-based; details: antagonist assay
Excerpt: as §1, with “intracellular Ca2^+” for “intracellular Ca^2+”
as §2, with “compound” for “conjugate”, “compounds” for “conjugates”

[4] = 0.05 nM 125I-(Tyr3-neurotensin), 60 min at 4° C., read-out: IC50
[5] = agonist assay, * bell-shaped curves, EC50 from ascending part of the curve, read-out: Agonistic Effect EC50
[6] = antagonist assay, 30 min pre-incubation, EC80-concentration of agonist, read-out: Antagonistic Effect IC50

T1 sequence (P30989 whole entry): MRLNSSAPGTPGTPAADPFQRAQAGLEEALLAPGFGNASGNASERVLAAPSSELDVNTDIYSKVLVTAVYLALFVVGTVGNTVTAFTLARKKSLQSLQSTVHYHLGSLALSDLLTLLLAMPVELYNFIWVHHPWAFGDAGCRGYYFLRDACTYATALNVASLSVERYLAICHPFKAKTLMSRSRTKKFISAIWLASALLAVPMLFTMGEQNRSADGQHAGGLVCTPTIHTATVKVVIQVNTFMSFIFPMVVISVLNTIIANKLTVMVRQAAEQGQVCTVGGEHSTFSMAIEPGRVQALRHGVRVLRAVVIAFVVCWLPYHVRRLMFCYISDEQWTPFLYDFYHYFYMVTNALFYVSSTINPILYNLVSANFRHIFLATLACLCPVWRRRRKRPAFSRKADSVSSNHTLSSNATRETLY

Row | SMILES | IC50 (NTR1 [1]; [4]) [nM] | EC50 (NTR1 [2]; [5]) [nM] | IC50 (NTR1 [2]; [6]) [nM] | IC50 (NTR1 [1]) [nM] | EC50 (NTR1 [2]) [nM] | IC50 (NTR1 [2]) [nM] | also measured
1 | COc1cccc(OC)c1-c1cc(C(=O)NC2(C(=O)O)C3CC4CC(C3)CC2C4)nn1-c1ccc(C(=O)N(C)CCCN(C)CCCN(C)C(=O)CCCNC(=O)CCC(=O)NCCCOCCOCCOCCCNC(=O)[C@H](CCCCNC(=O)CN2CCN(CC(=O)O)CCN(CC(=O)O)CCN(CC(=O)O)CC2)NC(=O)CCC(=O)NCCCOCCOCCOCCCNC(=O)CCCC(=O)N(C)CCCN(C)CCCN(C)C(=O)c2ccc(-n3nc(C(=O)NC4(C(=O)O)C5CC6CC(C5)CC4C6)cc3-c3c(OC)cccc3OC)c(C(C)C)c2)cc1C(C)C (some centres unmarked) [(12), 1206-Glutar-Ttds-Lys(DOTA)-Ttds-GABA-1206] | 2.5 | > 50000 | 2.5 | – | – | – | –
2 | COc1cccc(OC)c1-c1cc(C(=O)NC2(C(=O)O)C3CC4CC(C3)CC2C4)nn1-c1ccc(C(=O)N(C)CCCN(C)CCCN(C)C(=O)CCCC(=O)NCCCC[C@H](NC(=O)CCC(=O)NCCCOCCOCCOCCCNC(=O)CCC(=O)NCCCOCCOCCOCCCNC(=O)CCC(=O)NCCCOCCOCCOCCCNC(=O)[C@H](CCCCNC(=O)CN2CCN(CC(=O)O)CCN(CC(=O)O)CCN(CC(=O)O)CC2)NC(=O)CCC(=O)NCCCOCCOCCOCCCNC(=O)CCC(=O)NCCCOCCOCCOCCCNC(=O)CCC(=O)NCCCOCCOCCOCCCNC(=O)CCCC(=O)N(C)CCCN(C)CCCN(C)C(=O)c2ccc(-n3nc(C(=O)NC4(C(=O)O)C5CC6CC(C5)CC4C6)cc3-c3c(OC)cccc3OC)c(C(C)C)c2)C(N)=O)cc1C(C)C (some centres unmarked) [(15), 1206-Glutar-Ttds3-Lys(DOTA)-Ttds3-(ε-Lys-NH2)-Glutar-1206] | – | – | – | 4.7 | > 50000 | 2.3 | –
3 | COc1cccc(OC)c1-c1cc(C(=O)N[C@H](C(=O)O)C2CCCCC2)nn1-c1ccc(C(=O)N(C)CCCN(C)CCCN(C)C(=O)CN2CCN(CC(=O)O)CCN(CC(=O)O)CCN(CC(=O)O)CC2)cc1C(C)C [(IVa), (S)-2-{[1-{4-[(3-{[3-(DOTA-methyl-amino)-propyl]-methyl-amino}-propyl)-methyl-carbamoyl]-2-isopropyl-phenyl}-5-(2,6-dimethoxy-phenyl)-1H-pyrazole-3-carbonyl]-amino}-cyclohexyl-acetic acid] | – | – | – | – | – | – | IC50 (NTR1 [3]): 125 nM
4 | COc1cccc(OC)c1-c1cc(C(=O)NC2(C(=O)O)C3CC4CC(C3)CC2C4)nn1-c1ccc(C(=O)N(C)CCCN(C)CCCN(C)C(=O)CCCC(=O)NCCCOCCOCCOCCCNC(=O)CCC(=O)NCCCC[C@H](NC(=O)CCC(=O)NCCCOCCOCCOCCCNC(=O)CCCC(=O)N(C)CCCN(C)CCCN(C)C(=O)c2ccc(-n3nc(C(=O)NC4(C(=O)O)C5CC6CC(C5)CC4C6)cc3-c3c(OC)cccc3OC)c(C(C)C)c2)C(=O)NCCCOCCOCCOCCCNC(=O)CCC(=O)N[C@@H](CC(N)=O)C(=O)N[C@@H](C)C(=O)N[C@H](C(=O)N2CCC[C@H]2C(=O)N[C@@H](CC(N)=O)C(=O)N[C@@H](CC(C)C)C(=O)N[C@@H](CCCNC(=N)N)C(=O)NCC(=O)N[C@@H](CC(=O)O)C(=O)N[C@@H](CC(C)C)C(=O)N[C@@H](CCC(N)=O)C(=O)N[C@H](C(=O)N[C@@H](CC(C)C)C(=O)N[C@@H](C)C(=O)N[C@@H](CCC(N)=O)C(=O)N[C@@H](CCCCN)C(=O)N[C@H](C(=O)N[C@@H](C)C(=O)N[C@@H](CCCNC(=N)N)C(=O)N[C@H](C(=O)NCCCC(=O)NCCCOCCOCCOCCCNC(=O)CCC(=O)N[C@@H](CCCCNC(=O)CN2CCN(CC(=O)O)CCN(CC(=O)O)CCN(CC(=O)O)CC2)C(N)=O)[C@@H](C)O)C(C)C)C(C)C)C(C)C)cc1C(C)C (some centres unmarked) [(25)] | – | – | – | 7.5 | > 50000 | 12 | –
5 | COc1cccc(OC)c1-c1cc(C(=O)NC2(C(=O)O)C3CC4CC(C3)CC2C4)nn1-c1ccc(C(=O)N(C)CCCN(C)CCCN(C)C(=O)CCCC(=O)NCCCOCCOCCOCCCNC(=O)CCC(=O)N[C@@H](CCCCNC(=O)CN2CCN(CC(=O)O)CCN(CC(=O)O)CCN(CC(=O)O)CC2)C(=O)NCCCOCCOCCOCCCNC(=O)CCC(=O)NCCCC(=O)N[C@@H](CC(N)=O)C(=O)N[C@@H](C)C(=O)N[C@H](C(=O)N2CCC[C@H]2C(=O)N[C@@H](CC(N)=O)C(=O)N[C@@H](CC(C)C)C(=O)N[C@@H](CCCNC(=N)N)C(=O)NCC(=O)N[C@@H](CC(=O)O)C(=O)N[C@@H](CC(C)C)C(=O)N[C@@H](CCC(N)=O)C(=O)N[C@H](C(=O)N[C@@H](CC(C)C)C(=O)N[C@@H](C)C(=O)N[C@@H](CCC(N)=O)C(=O)N[C@@H](CCCCN)C(=O)N[C@H](C(=O)N[C@@H](C)C(=O)N[C@@H](CCCNC(=N)N)C(=O)N[C@H](C(N)=O)[C@@H](C)O)C(C)C)C(C)C)C(C)C)cc1C(C)C (some centres unmarked) [(21)] | – | – | – | 10 | > 50000 | 18 | –
6 | COc1cccc(OC)c1-c1cc(C(=O)NC2(C(=O)O)C3CC4CC(C3)CC2C4)nn1-c1ccc(C(=O)N(C)CCCN(C)CCCN(C)C(=O)CCCNC(=O)[C@H](CCCCNC(=O)CN2CCN(CC(=O)O)CCN(CC(=O)O)CCN(CC(=O)O)CC2)NC(=O)CCCC(=O)N(C)CCCN(C)CCCN(C)C(=O)c2ccc(-n3nc(C(=O)NC4(C(=O)O)C5CC6CC(C5)CC4C6)cc3-c3c(OC)cccc3OC)c(C(C)C)c2)cc1C(C)C (some centres unmarked) [(13), 1206-Glutar-Lys(DOTA)-GABA-1206] | 2.2 | > 50000 | 6.1 | – | – | – | –
7 | COc1cccc(OC)c1-c1cc(C(=O)NC2(C(=O)NCCNC(=O)CN3CCN(CC(=O)O)CCN(CC(=O)O)CCN(CC(=O)O)CC3)C3CC4CC(C3)CC2C4)nn1-c1ccc(C(=O)N(C)CCCN(C)C)cc1C(C)C (centres unmarked) [(XVII), 5-(2,6-Dimethoxy-phenyl)-1-{4-[(3-dimethylamino-propyl)-methyl-carbamoyl]-2-isopropyl-phenyl}-1H-pyrazole-3-carboxylic acid [2-(2-DOTA-amino-ethylcarbamoyl)-adamantan-2-yl]-amide, reference compound] | – | – | – | – | – | – | IC50 [nM] Ca (NTR1 [3]): inactivity
8 | COc1cccc(OC)c1-c1cc(C(=O)NC2(C(=O)O)C3CC4CC(C3)CC2C4)nn1-c1ccc(C(=O)N(C)CCCN(C)CCCN(C)C(=O)CCCC(=O)NCCCOCCOCCOCCCNC(=O)CCC(=O)NCCCOCCOCCOCCCNC(=O)CCC(=O)NCCCOCCOCCOCCCNC(=O)CCC(=O)N[C@@H](CCCCNC(=O)CN2CCN(CC(=O)O)CCN(CC(=O)O)CCN(CC(=O)O)CC2)C(=O)NCCCOCCOCCOCCCNC(=O)CCC(=O)NCCCOCCOCCOCCCNC(=O)CCC(=O)NCCCOCCOCCOCCCNC(=O)CCC(=O)NCCCC(=O)N[C@H](CCCNC(=N)N)C(=O)N[C@@H](CCCNC(=N)N)C(=O)N2CCC[C@H]2C(=O)N[C@@H](Cc2ccc(O)cc2)C(=O)N[C@H](C(=O)N[C@@H](CC(C)C)C(=O)O)C(C)(C)C)cc1C(C)C (stereo partly drawn) [(18), 1206-Glutar-Ttds3-Lys(DOTA)-Ttds3-GABA-arg-Arg-Pro-Tyr-Tle-Leu-OH] | – | – | – | 2.7 | > 50000 | 3.8 | –
9 | COc1cccc(OC)c1-c1cc(C(=O)NC2(C(=O)O)C3CC4CC(C3)CC2C4)nn1-c1ccc(C(=O)N(C)CCCN(C)CCCN(C)C(=O)CCCC(=O)NCCCCCC(=O)N[C@@H](CCCCNC(=O)CN2CCN(CC(=O)O)CCN(CC(=O)O)CCN(CC(=O)O)CC2)C(=O)N[C@@H](CCCCNC(=O)CCCC(=O)N(C)CCCN(C)CCCN(C)C(=O)c2ccc(-n3nc(C(=O)NC4(C(=O)O)C5CC6CC(C5)CC4C6)cc3-c3c(OC)cccc3OC)c(C(C)C)c2)C(N)=O)cc1C(C)C (some centres unmarked) [(14), 1206-Glutar-Ahx-Lys(DOTA)-(ε-Lys-NH2)-Glutar-1206] | 2.4 | > 50000 | 2.3 | – | – | – | –
